From patent US5929093A, “Bifunctional acetylcholinesterase reactivators” (priority 1997, dated 1999) come the findings set out here.

This assay has as its target T1, human red blood cell AChE (Homo sapiens, UniProt P22303).
T1 construct: human red blood cell AChE; from tissue; host or cells: human red blood cells
Put plainly: AChE reactivation assay with echothiophate-inhibited human red blood cell AChE. The format is biochemical. As to conditions: for activation at 1 µM: read-out: Percentages of AChE reactivation.

Where [1] appears, read: single concentration 10^-6 M, added for 1 hour, AChE inhibited by echothiophate 10^-7 M, means ± standard errors of 4 measurements.

T1 sequence (P22303 other isoform, or with tags, fused parts or gaps): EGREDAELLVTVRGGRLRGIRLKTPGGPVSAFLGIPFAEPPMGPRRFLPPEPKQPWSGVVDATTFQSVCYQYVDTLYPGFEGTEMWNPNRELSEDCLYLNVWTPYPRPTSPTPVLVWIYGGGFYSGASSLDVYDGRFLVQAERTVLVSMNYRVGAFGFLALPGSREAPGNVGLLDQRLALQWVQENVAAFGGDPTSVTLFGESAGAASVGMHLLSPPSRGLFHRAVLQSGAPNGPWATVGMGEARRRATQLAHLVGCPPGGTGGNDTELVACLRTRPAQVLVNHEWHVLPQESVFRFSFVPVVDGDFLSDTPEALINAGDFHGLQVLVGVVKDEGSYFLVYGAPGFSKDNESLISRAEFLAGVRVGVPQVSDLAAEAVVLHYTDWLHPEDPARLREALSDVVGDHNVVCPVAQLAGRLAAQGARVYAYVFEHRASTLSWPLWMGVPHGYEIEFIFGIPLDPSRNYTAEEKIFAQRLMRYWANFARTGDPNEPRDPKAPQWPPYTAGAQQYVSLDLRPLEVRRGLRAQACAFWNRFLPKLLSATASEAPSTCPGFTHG

In the case of `ON=Cc1cccc[n+]1CCCCCC[n+]1ccccc1C=NO` [Compound 3a, 1,6-Hexylene-bis-N,N'-2-pyridinium aldoxime dichloride], the activation at 1 µM under setting [1] amounted to 67 ± 0.8%.
Same read-out and setting: the result for `ON=Cc1cc[n+](CCCCCC[n+]2ccc(C=NO)cc2)cc1` [Compound 1a, 1,6-Hexylene-bis-N,N'-4-pyridiniumaldoxime dibromide] reads 47 ± 1.8%.
Still for that read-out and setting: for `ON=Cc1cc[n+](CCCCCCCC[n+]2ccc(C=NO)cc2)cc1` [Compound 1c, 1,8-Octylene-bis-N,N'-4-pyridiniumaldoxime dibromide] the value was 44 ± 1.7%.
Still for that read-out and setting: the result for `ON=Cc1cccc[n+]1CCCCCCCC[n+]1ccccc1C=NO` [Compound 3c, 1,8-Octylene-bis-N,N'-2-pyridiniumaldoxime dichloride] reads 69 ± 4.7%; that for `ON=Cc1cc[n+](CCCCCCCCC[n+]2ccc(C=NO)cc2)cc1` [Compound 1d, 1,9-Nonylene-bis-N,N'-4-pyridiniumaldoxime dibromide], 31 ± 2.3%.
Regarding `C[n+]1ccccc1C=NO` [Compound 2-PAM, 2-pralidoxime, reference compound], under setting [1], the “Percentages of AChE reactivation” value turned out to be 17 ± 2.8% and the activation at 1 µM is 17%.
In the case of `ON=Cc1cccc[n+]1CCCCCCC[n+]1ccccc1C=NO` [Compound 3b, 1,7-Heptylene-bis-N,N'-2-pyridiniumaldoxime dichloride], the activation at 1 µM under setting [1] was 80 ± 3.7%.
Take `ON=Cc1cccc[n+]1CCCCCCCCC[n+]1ccccc1C=NO` [Compound 3d, 1,9-Nonylene-bis-N,N'-2-pyridiniumaldoxime dichloride]: under setting [1], the activation at 1 µM was 58 ± 0.5%.
Consider `ON=Cc1cc[n+](CCCCCCC[n+]2ccc(C=NO)cc2)cc1` [Compound 1b, 1,7-Heptylene-bis-N,N'-4-pyridiniumaldoxime dibromide], for which, where the note is “full dose-response curves, compared with 2-PAM”, the “potency in reactivation relative to 2-PAM (full dose-response curves)” value is on record as “ten-fold more potent”. Also, under setting [1], the activation at 1 µM is 61 ± 3.2%.
